Series [1] addresses T1, human TLR8 (Homo sapiens, UniProt Q9NR97).
T1 sequence (Q9NR97 27-1041): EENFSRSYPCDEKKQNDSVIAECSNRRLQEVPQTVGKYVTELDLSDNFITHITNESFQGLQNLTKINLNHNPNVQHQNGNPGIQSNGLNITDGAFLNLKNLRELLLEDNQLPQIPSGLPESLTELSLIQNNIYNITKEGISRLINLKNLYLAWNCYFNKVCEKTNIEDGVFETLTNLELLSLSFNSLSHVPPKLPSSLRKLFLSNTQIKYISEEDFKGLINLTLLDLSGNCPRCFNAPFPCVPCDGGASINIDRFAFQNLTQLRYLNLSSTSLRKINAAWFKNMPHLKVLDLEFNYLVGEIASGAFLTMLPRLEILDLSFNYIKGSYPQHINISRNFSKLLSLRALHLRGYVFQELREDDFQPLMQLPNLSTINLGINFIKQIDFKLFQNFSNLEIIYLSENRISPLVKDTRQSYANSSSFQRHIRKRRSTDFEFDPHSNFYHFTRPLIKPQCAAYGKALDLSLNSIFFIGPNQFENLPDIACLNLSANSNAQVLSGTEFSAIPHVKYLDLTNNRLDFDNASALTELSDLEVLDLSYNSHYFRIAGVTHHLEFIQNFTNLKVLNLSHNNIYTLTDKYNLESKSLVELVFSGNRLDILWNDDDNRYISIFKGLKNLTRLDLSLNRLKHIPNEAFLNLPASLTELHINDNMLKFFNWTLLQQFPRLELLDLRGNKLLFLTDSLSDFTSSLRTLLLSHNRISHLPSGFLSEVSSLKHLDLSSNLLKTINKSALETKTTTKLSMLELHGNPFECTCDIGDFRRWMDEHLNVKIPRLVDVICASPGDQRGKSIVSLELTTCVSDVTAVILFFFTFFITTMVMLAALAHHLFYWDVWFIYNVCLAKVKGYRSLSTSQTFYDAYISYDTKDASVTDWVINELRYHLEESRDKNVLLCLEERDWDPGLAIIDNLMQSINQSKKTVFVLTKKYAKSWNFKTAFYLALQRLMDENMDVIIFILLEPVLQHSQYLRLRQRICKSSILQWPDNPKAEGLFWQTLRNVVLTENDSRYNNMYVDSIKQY
Kind of series: HEK293-Blue-hTLR-8 cells assay. The series is classed as cell-based. Particulars: HEK293-Blue-hTLR8 cells, R848 stimulation, 20 hrs, SEAP reporter; read-out: HEK/hTLR8 IC50. In outline: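 Antagonism read out in HEK293-Blue-hTLR8 cells carrying an NF-κB/AP-1-driven SEAP reporter, stimulated with R848 (10 μL of 60 uM stock added) alongside serially diluted compound (1% DMSO), 20 h at 37° C. Supernatant SEAP measured with QUANTI-Blue after 2 h at 37° C, absorbance at 620-655 nm.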

The target in series [2] is T2, hERG K+ channel (Homo sapiens, UniProt Q12809).
T2 construct: expressed in transfected cells; host or cells: CHO (Chinese hamster ovary) cells, CHOhERG
The series is described as follows: hERG channel inhibition assay. In kind it is cell-based. The conditions noted are these: patch-clamp (voltage-clamp, whole-cell); for IC50: CHO cells expressing hERG; for IC20: human, CHO cells stably expressing hERG. On the procedure: hERG Channel Inhibition Assay
The hERG K^+ channels were cloned in humans and stably expressed in a CHO (Chinese hamster ovary) cell line. CHOhERG cells were used for patch-clamp (voltage-clamp, whole-cell) experiments. Cells were stimulated by a voltage pattern to activate hERG channels and conduct IKhERG currents (rapid delayed outward rectifier potassium current of the hERG channel). After the cells were stabilized for a few minutes, the amplitude and kinetics of IKhERG were recorded at a stimulation frequency of 0.1 Hz (6 bpm). Thereafter, the test compound was added to the preparation at increasing concentrations. For each concentration, an attempt was made to reach a steady-state effect, usually, this was achieved within 3-10 min at which time the next highest concentration was applied. The amplitude and kinetics of IKhERG are recorded in each concentration of the drug which were compared to the control values (taken as 100%). (references: Redfem W S, Carlsson L, Davis A S, Lynch W G, MacKenzie I, Palethorpe S, Siegl P K, Strang I, Sullivan A T, Wallis R, Camm A J, Hammond T G. 2003; Relationships between preclinical cardiac electrophysiology, clinical QT interval prolongation and torsade de pointes for a broad range of drugs: evidence for a provisional safety margin in drug development. Cardiovasc. Res. 58:32-45, Sanguinetti M C, Tristani-Firouzi M. 2006; hERG potassium channels and cardiac arrhythmia. Nature 440:463-469, Webster R, Leishman D, Walker D. 2002; Towards a drug concentration effect relationship for QT prolongation and torsades de pointes. Curr. Opin. Drug Discov. Devel. 5:116-26).
In general terms: Block of hERG is tested as a sign of cardiac risk.

By IC20 is commonly meant the concentration at which the effect reaches the 20% level. Higher therefore signals a need for much substance.

A value given as a limit tells only on which side of the number the result lay.

T2 sequence (Q12809 whole entry): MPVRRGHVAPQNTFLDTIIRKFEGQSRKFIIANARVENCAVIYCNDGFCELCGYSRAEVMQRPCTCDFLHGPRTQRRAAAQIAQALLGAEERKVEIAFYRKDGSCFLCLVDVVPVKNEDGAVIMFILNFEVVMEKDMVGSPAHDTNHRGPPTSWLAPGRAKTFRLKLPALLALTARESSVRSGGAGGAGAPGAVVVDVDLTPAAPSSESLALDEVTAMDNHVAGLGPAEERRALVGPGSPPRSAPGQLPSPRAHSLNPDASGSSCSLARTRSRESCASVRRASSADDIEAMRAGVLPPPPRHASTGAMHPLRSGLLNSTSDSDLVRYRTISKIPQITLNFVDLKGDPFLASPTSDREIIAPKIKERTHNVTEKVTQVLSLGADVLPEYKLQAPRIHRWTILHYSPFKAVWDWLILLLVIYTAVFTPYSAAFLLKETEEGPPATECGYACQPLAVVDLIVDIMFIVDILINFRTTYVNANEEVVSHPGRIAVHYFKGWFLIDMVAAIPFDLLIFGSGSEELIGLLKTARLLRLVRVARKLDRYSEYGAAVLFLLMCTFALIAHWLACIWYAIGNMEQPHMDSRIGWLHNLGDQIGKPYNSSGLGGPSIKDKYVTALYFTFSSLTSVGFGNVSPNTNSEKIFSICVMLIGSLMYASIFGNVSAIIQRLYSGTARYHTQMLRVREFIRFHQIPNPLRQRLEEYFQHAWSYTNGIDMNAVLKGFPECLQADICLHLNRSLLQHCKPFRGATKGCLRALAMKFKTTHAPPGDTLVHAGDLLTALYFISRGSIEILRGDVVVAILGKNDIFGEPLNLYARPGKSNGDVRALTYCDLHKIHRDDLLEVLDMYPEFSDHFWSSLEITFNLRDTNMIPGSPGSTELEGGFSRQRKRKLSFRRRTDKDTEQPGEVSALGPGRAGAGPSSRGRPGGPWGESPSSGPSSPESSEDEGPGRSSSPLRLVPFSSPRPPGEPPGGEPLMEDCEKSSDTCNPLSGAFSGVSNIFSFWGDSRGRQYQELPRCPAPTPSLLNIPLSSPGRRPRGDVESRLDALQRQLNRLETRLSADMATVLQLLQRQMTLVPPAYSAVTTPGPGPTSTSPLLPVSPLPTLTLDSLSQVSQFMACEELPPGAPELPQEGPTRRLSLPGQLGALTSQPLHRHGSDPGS

In the case of `C[C@@H]1CN(c2ccc(C#N)c3ncccc23)C[C@@H]2c3ccc(N4C[C@@H](N)[C@](C)(O)C4)cc3CN12` [Example 45A, 5-[(4R,10bS)-8-[(3R,4R)-4-amino-3-hydroxy-3-methyl-pyrrolidin-1-yl]-4-methyl-3,4,6,10b-tetrahydro-1H-pyrazino[2,1-a]isoindol-2-yl]quinoline-8-carbonitrile], the results for the IC50 in series [1] and in series [2] were 0.0015 µM and greater than 20 µM, respectively. The IC20 in series [2] stood at 7.4 µM.
The like results for `C[C@@H]1CN(c2ccc(C#N)c3ncccc23)C[C@@H]2c3ccc(N4C[C@@H](N)[C@H](O)C4)cc3CN12` (single isomer, unassigned) [Example 40B] were, in that order, 0.0009 µM, greater than 20 µM and greater than 10 µM.
Regarding `C[C@@H]1CN(c2ccc(C#N)c3ncccc23)C[C@@H]2c3ccc(N4CC5(CNC5)C4)cc3CN12` [Example 36, 5-[(4R,10bS)-8-(2,6-diazaspiro[3.3]heptan-2-yl)-4-methyl-3,4,6,10b-tetrahydro-1H-pyrazino[2,1-a]isoindol-2-yl]quinoline-8-carbonitrile], the IC50 in series [1] was less than 0.0032 µM. Also, in series [2], the IC50 was greater than 20 µM and the IC20 is greater than 10 µM.
The like results for `CN[C@H]1CN(c2ccc3c(c2)CN2[C@H](C)CN(c4ccc(C#N)c5ncccc45)C[C@H]32)C[C@@H]1O` [Example 42, 5-[(4R,10bS)-8-[(3S,4S)-3-hydroxy-4-(methylamino)pyrrolidin-1-yl]-4-methyl-3,4,6,10b-tetrahydro-1H-pyrazino[2,1-a]isoindol-2-yl]quinoline-8-carbonitrile] were, in that order, less than 0.0032 µM, greater than 20 µM and 6.7 µM.
Take `C[C@@H]1CN(c2ccc(C#N)c3ncccc23)C[C@@H]2c3ccc(N4CC5(CCN5)C4)cc3CN12` [Example 37, 5-[(4R,10bS)-8-(1,6-diazaspiro[3.3]heptan-6-yl)-4-methyl-3,4,6,10b-tetrahydro-1H-pyrazino[2,1-a]isoindol-2-yl]quinoline-8-carbonitrile]: the IC50 in series [1] is less than 0.0032 µM; in series [2], greater than 20 µM. This compound also returned an IC20 in series [2] of 8.6 µM.
Take `C[C@@H]1CN(c2ccc(C#N)c3ncccc23)C[C@@H]2c3ccc(N4CC(C)(N)C4)cc3CN12` [Example 39, 5-[(4R,10bS)-8-(3-amino-3-methyl-azetidin-1-yl)-4-methyl-3,4,6,10b-tetrahydro-1H-pyrazino[2,1-a]isoindol-2-yl]quinoline-8-carbonitrile]: in series [1], the IC50 was less than 0.0003 µM. In series [2], this compound showed an IC50 greater than 20 µM and an IC20 greater than 10 µM.
In the same order, the values of `C[C@@H]1CN(c2ccc(C#N)c3ncccc23)C[C@@H]2c3ccc(N4CC5(CN(C)C5)C4)cc3CN12` [Example 38, 5-[(4R,10bS)-4-methyl-8-(6-methyl-2,6-diazaspiro[3.3]heptan-2-yl)-3,4,6,10b-tetrahydro-1H-pyrazino[2,1-a]isoindol-2-yl]quinoline-8-carbonitrile] are less than 0.0003 µM, greater than 20 µM and greater than 10 µM.
For `C[C@@H]1CN(c2ccc(C#N)c3ncccc23)C[C@@H]2c3ccc(N4C[C@H](N)[C@@](C)(O)C4)cc3CN12` [Example 45B, 5-[(4R,10bS)-8-[(3S,4S)-4-amino-3-hydroxy-3-methyl-pyrrolidin-1-yl]-4-methyl-3,4,6,10b-tetrahydro-1H-pyrazino[2,1-a]isoindol-2-yl]quinoline-8-carbonitrile], the figures for the IC50 in series [1] and in series [2] were 0.0012 µM and greater than 20 µM, respectively. Also, in series [2], the 20% effect concentration (IC20) was greater than 10 µM.
In the same order, the values of `C[C@@H]1CN(c2ccc(C#N)c3ncccc23)C[C@@H]2c3ccc(NCCN(C)C)cc3CN12` [Example 26, 5-[(4R,10bS)-8-[2-(dimethylamino)ethylamino]-4-methyl-3,4,6,10b-tetrahydro-1H-pyrazino[2,1-a]isoindol-2-yl]quinoline-8-carbonitrile] are less than 0.0032 µM, greater than 20 µM and 5 µM.
The like results for `C[C@@H]1CN(c2ccc(C#N)c3ncccc23)C[C@@H]2c3ccc(N4C[C@H]5NCCO[C@@H]5C4)cc3CN12` [Example 44, 5-[(4R,10bS)-4-methyl-8-[(4aR,7aR)-3,4,4a,5,7,7a-hexahydro-2H-pyrrolo[3,4-b][1,4]oxazin-6-yl]-3,4,6,10b-tetrahydro-1H-pyrazino[2,1-a]isoindol-2-yl]quinoline-8-carbonitrile] were, in that order, 0.0004 µM, greater than 20 µM and 6.4 µM.
